Laboratory results: ChEMBL document CHEMBL5154904, “Discovery and Structural Basis of the Selectivity of Potent Cyclic Peptide Inhibitors of MAGE-A4” (J Med Chem, 2022)
Substitutions are numbered along the chain they refer to. Active and inactive are the calls of the source. The rule behind the calls is not given here. Positions of bridges follow the written chain, without caps; N, C: chain ends. Residues, ends and D or L forms follow the SMILES beside them.

Columns and labels:
[1] = system: T1, Melanoma-associated antigen 4 (Homo sapiens), P43358 [I205A]; experiment: Binding affinity to recombinant N-terminal His-tagged MAGEA4-MH domain I205A mutant (unknown origin) expressed in Escherichia coli BL21-(DE3) assessed as increase in thermal stability by SYPRO orange dye based differential scanning fluorimetry; conditions: dose <= 10.0 µM
T1 sequence (whole entry): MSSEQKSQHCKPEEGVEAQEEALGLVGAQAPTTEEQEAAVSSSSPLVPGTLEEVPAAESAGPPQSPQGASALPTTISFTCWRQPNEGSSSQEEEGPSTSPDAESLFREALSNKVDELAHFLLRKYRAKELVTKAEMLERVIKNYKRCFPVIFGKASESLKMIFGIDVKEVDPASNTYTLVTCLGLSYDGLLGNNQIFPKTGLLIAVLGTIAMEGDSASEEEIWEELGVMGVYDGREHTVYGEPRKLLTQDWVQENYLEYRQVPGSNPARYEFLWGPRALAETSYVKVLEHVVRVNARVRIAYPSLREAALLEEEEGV

[2] = system: T2, Melanoma-associated antigen 4 (Homo sapiens), P43358 [M161A]; experiment: Binding affinity to recombinant N-terminal His-tagged MAGEA4-MH domain M161A mutant (unknown origin) expressed in Escherichia coli BL21-(DE3) assessed as increase in thermal stability by SYPRO orange dye based differential scanning fluorimetry; conditions: dose 10.0 µM
T2 sequence (whole entry): T1 sequence (whole entry) with M161A, A205I

[3] = system: T3, Melanoma-associated antigen 4 (Homo sapiens), P43358 [R299A]; experiment: Binding affinity to recombinant N-terminal His-tagged MAGEA4-MH domain R299A mutant (unknown origin) expressed in Escherichia coli BL21-(DE3) assessed as increase in thermal stability by SYPRO orange dye based differential scanning fluorimetry; conditions: dose <= 10.0 µM
T3 sequence (whole entry): T1 sequence (whole entry) with A205I, R299A

[4] = system: NCI-H1299; experiment: Inhibition of MAGEA4 in human NCI-H1299 cell lysate interaction with HA-tagged RAD18 (unknown origin) at 1 uM incubated for overnight by co-immunoprecipitation pull down assay; assay type: subcellular
[5] = species: Homo sapiens; experiment: Inhibition of Eu-W1024 streptavidin-labeled 6 xHis-tagged MAGEA4-MH domain I205A mutant (unknown origin) expressed in Escherichia coli BL21-(DE3) interaction with Ulight-labeled GST-tagged RAD18 (unknown origin) (267 to 402 residues) at 1 uM by LANCE TR-FRET assay
[6] = system: T4, Melanoma-associated antigen 4 (Homo sapiens), P43358 [M229A]; experiment: Binding affinity to recombinant N-terminal His-tagged MAGEA4-MH domain M229A mutant (unknown origin) expressed in Escherichia coli BL21-(DE3) assessed as increase in thermal stability by SYPRO orange dye based differential scanning fluorimetry; conditions: dose <= 10.0 µM
T4 sequence (whole entry): T1 sequence (whole entry) with A205I, M229A

[7] = system: T5, Melanoma-associated antigen 4 (Homo sapiens), P43358 [D115R]; experiment: Binding affinity to recombinant N-terminal His-tagged MAGEA4-MH domain D115R mutant (unknown origin) expressed in Escherichia coli BL21-(DE3) assessed as increase in thermal stability by SYPRO orange dye based differential scanning fluorimetry; conditions: dose <= 10.0 µM
T5 sequence (whole entry): T1 sequence (whole entry) with D115R, A205I

[8] = species: Homo sapiens; experiment: Inhibition of Eu-W1024 streptavidin-labeled 6 xHis-tagged MAGEA4-MH domain E225A mutant (unknown origin) expressed in Escherichia coli BL21-(DE3) interaction with Ulight-labeled GST-tagged RAD18 (unknown origin) (267 to 402 residues) at 1 uM by LANCE TR-FRET assay
[9] = system: T6, Melanoma-associated antigen 4 (Homo sapiens), P43358 [V291A]; experiment: Binding affinity to recombinant N-terminal His-tagged MAGEA4-MH domain V291A mutant (unknown origin) expressed in Escherichia coli BL21-(DE3) assessed as increase in thermal stability by SYPRO orange dye based differential scanning fluorimetry; conditions: dose <= 10.0 µM
T6 sequence (whole entry): T1 sequence (whole entry) with A205I, V291A

For CC[C@H](C)[C@@H]1NC(=O)[C@H](Cc2ccc(O)cc2)NC(=O)CSC[C@@H](C(N)=O)NC(=O)[C@H](CC(N)=O)NC(=O)[C@H](Cc2cnc[nH]2)NC(=O)[C@H](Cc2ccc(O)cc2)NC(=O)[C@H](CC(=O)O)NC(=O)[C@H](Cc2ccc(O)cc2)NC(=O)[C@H](CC(C)C)NC(=O)[C@H](CCCNC(=N)N)NC1=O ({CH2CO}-YIRLYDYHNC-NH2; thioether N-10), which Tm [1] is on record?
The Tm was < 3.5 °C.

And the Tm [2]?
Its Tm is < 3.5 °C.

And the Tm [3]?
The Tm was < 3.5 °C.

And the inhibition [4]?
Its inhibition is “Active”.

What about the inhibition [5] of the same compound?
The inhibition was “Active”.

What about the Tm [6] of the same compound?
Its Tm is < 3.5 °C.

What about the Tm [7] of the same compound?
Its Tm is < 3.5 °C.

What about the inhibition [8] of the same compound?
The inhibition was “Active”.

And the Tm [9]?
The Tm was < 3.5 °C.
